Results: patent publication US10131679B2, “Substituted dihydropyrrolopyrazole compound” (UBE INDUSTRIES, LTD., priority 2014, dated 2018)

Experiments:
[1] = target: T1, CDK7 (Homo sapiens, UniProt P50613); assay: CDK7 enzyme inhibition test; format: biochemical; details: Ki=IC50/(1+S/Km); 33P bound to MBP, [γ-33P]ATP, 30° C. for 20 minutes; read-out: Ki value of CDK7 inhibitory activity
T1 construct: purchased Carna Biosciences, Inc. 04-108
Procedure, shortened: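 Recombinant CDK7 with MBP substrate and [γ-33P]ATP (500 μM solution, diluted into the mix) in HEPES pH 7.4/DTT/Triton X-100/MgCl2, 20 min at 30 °C. TCA-precipitated 33P-MBP counted by scintillation; IC50 from inhibition, Ki = IC50/(1+S/Km).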

[2] = target: T2, CDK2 (Homo sapiens, UniProt P24941); assay: CDK2 enzyme inhibition test; format: biochemical; details: Ki=IC50/(1+S/Km); 33P bound to MBP, [γ-33P]ATP, 30° C. for 20 minutes; read-out: Ki value of CDK2 inhibitory activity
T2 construct: purchased Invitrogen Corp. PV3267
Procedure, shortened: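 Commercial CDK2 with MBP substrate and [γ-33P]ATP (500 μM solution, before mixing) in HEPES pH 7.4 buffer with DTT, Triton X-100 and MgCl2; 20 min at 30 °C. TCA-precipitated 33P-MBP counted by liquid scintillation; IC50 from inhibition of 33P incorporation, Ki = IC50/(1+S/Km).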

[3] = tested on: human large intestine cancer cell line (HCT-116); assay: Human large intestine cancer (HCT-116) cell growth inhibition test; format: cell-based; details: 72 h, HCT-116, culture for 3 days, sulforhodamine B absorbance
Procedure, shortened: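 HCT-116 cells seeded at 1.0×10^3 cells/well in McCoy's 5a with 10% FBS, then exposed to compound (0.1% DMSO final) for 3 days. Growth measured by sulforhodamine B absorbance; IC50 derived from concentration-inhibition data.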

T1 sequence (P50613 whole entry): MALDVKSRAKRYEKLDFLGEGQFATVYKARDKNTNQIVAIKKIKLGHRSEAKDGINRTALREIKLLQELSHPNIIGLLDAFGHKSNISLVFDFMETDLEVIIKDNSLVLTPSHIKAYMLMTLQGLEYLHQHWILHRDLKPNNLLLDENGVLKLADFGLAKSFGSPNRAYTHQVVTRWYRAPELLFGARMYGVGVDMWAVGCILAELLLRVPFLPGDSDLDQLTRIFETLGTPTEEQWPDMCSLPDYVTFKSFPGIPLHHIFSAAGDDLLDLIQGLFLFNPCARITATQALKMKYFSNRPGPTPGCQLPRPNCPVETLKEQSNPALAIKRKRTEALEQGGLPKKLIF
T1 sequence (P51946 whole entry partner): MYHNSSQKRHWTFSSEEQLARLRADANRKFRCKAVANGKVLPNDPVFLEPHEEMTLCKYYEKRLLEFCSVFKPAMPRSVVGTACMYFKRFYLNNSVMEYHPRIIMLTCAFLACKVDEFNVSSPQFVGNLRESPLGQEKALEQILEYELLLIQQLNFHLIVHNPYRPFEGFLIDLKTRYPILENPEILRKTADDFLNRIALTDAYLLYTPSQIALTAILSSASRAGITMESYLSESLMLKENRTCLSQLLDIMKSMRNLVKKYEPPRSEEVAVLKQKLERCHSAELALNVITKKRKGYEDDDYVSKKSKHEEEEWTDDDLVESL
T1 sequence (P51948 whole entry partner): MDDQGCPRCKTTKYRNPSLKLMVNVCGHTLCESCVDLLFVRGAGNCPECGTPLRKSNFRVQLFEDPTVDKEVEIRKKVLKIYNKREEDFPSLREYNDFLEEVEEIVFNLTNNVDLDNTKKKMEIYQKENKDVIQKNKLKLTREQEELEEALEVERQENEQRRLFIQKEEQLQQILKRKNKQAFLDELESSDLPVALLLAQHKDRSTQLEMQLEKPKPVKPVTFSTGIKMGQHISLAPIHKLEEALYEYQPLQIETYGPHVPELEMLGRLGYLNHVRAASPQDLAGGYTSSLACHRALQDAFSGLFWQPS

SMILES | Ki [1] | Ki [2] | IC50 [3]
CC(C)(O)[C@@H](NC(=O)N1Cc2c(NC(=O)C3([Si](C)(C)C)CCC3)n[nH]c2C1(C)C)c1ccccc1 [IV-171, (S)—N-(2-Hydroxy-2-methyl-1-phenylpropyl)-6,6-dimethyl-3-[1-(trimethylsilyl)cyclobutanecarboxamido]-4,6-dihydropyrrolo[3,4-c]pyrazole-5(1H)-carboxamide] | ≤ 50 nM | ≥ 1000 nM | ≤ 500 nM
CC1(C)c2[nH]nc(NC(=O)C3([Si](C)(C)C)CCC3)c2CN1C(=O)N[C@H](CCO)c1ccccc1 [IV-227, (R)—N-(3-Hydroxy-1-phenylpropyl)-6,6-dimethyl-3-[1-(trimethylsilyl)cyclobutanecarboxamido]-4,6-dihydropyrrolo[3,4-c]pyrazole-5(1H)-carboxamide] | ≤ 50 nM | ≥ 1000 nM | ≤ 500 nM
CC1(C)c2[nH]nc(NC(=O)C3([Si](C)(C)C)CCC3)c2CN1C(=O)N[C@H](CCCO)c1ccccc1 [IV-283, (R)—N-(4-Hydroxy-1-phenylbutyl)-6,6-dimethyl-3-[1-(trimethylsilyl)cyclobutanecarboxamido]-4,6-dihydropyrrolo[3,4-c]pyrazole-5(1H)-carboxamide] | ≤ 50 nM | ≥ 1000 nM | ≤ 500 nM
CC1(C)c2[nH]nc(NC(=O)C3([Si](C)(C)C)CCC3)c2CN1C(=O)N[C@H](CCCCO)c1ccccc1 [IV-291, (R)—N-(5-Hydroxy-1-phenylpentyl)-6,6-dimethyl-3-[1-(trimethylsilyl)cyclobutanecarboxamido]-4,6-dihydropyrrolo[3,4-c]pyrazole-5(1H)-carboxamide] | ≤ 50 nM | ≥ 1000 nM | ≤ 500 nM
CC(C)(O)C[C@@H](NC(=O)N1Cc2c(NC(=O)C3([Si](C)(C)C)CCC3)n[nH]c2C1(C)C)c1ccccc1 [IV-299, (R)—N-(3-Hydroxy-3-methyl-1-phenylbutyl)-6,6-dimethyl-3-[1-(trimethylsilyl)cyclobutanecarboxamido]-4,6-dihydropyrrolo[3,4-c]pyrazole-5(1H)-carboxamide] | ≤ 50 nM | ≥ 1000 nM | ≤ 500 nM
CC1(C)c2[nH]nc(NC(=O)C3([Si](C)(C)C)CCC3)c2CN1C(=O)NCCO [IV-438, N-(2-Hydroxyethyl)-6,6-dimethyl-3-[1-(trimethylsilyl)cyclobutanecarboxamido]-4,6-dihydropyrrolo[3,4-c]pyrazole-5(1H)-carboxamide] | ≤ 50 nM | ≥ 1000 nM | ≤ 500 nM
CC1(C)c2[nH]nc(NC(=O)C3([Si](C)(C)C)CCC3)c2CN1C(=O)NCC(O)c1ccccc1 (stereo not drawn) [IV-450, N-(2-Hydroxy-2-phenylethyl)-6,6-dimethyl-3-[1-(trimethylsilyl)cyclobutanecarboxamido]-4,6-dihydropyrrolo[3,4-c]pyrazole-5(1H)-carboxamide] | ≤ 50 nM | ≥ 1000 nM | ≤ 500 nM
CC(C)[C@@H](CO)NC(=O)N1Cc2c(NC(=O)C3([Si](C)(C)C)CCC3)n[nH]c2C1(C)C [IV-475, (S)—N-(1-Hydroxy-3-methylbutan-2-yl)-6,6-dimethyl-3-[1-(trimethylsilyl)cyclobutanecarboxamido]-4,6-dihydropyrrolo[3,4-c]pyrazole-5(1H)-carboxamide] | ≤ 50 nM | ≥ 1000 nM | ≤ 500 nM
CC1(C)c2[nH]nc(NC(=O)C3([Si](C)(C)C)CCC3)c2CN1C(=O)N[C@H](CO)C1CCCCC1 [IV-495, (S)—N-(1-Cyclohexyl-2-hydroxyethyl)-6,6-dimethyl-3-[1-(trimethylsilyl)cyclobutanecarboxamido]-4,6-dihydropyrrolo[3,4-c]pyrazole-5(1H)-carboxamide] | ≤ 50 nM | ≥ 1000 nM | ≤ 500 nM
CC1(C)c2[nH]nc(NC(=O)C3([Si](C)(C)C)CCC3)c2CN1C(=O)C(CO)c1ccccc1 (stereo not drawn) [IV-632, N-[5-(3-Hydroxy-2-phenylpropanoyl)-6,6-dimethyl-1,4,5,6-tetrahydropyrrolo[3,4-c]pyrazol-3-yl]-1-(trimethylsilyl)cyclobutanecarboxamide] | ≤ 50 nM | ≥ 1000 nM | ≤ 500 nM
CC1(C)c2[nH]nc(NC(=O)C3([Si](C)(C)C)CCC3)c2CN1C(=O)N[C@H](CC1(O)CC1)c1ccccc1 [IV-743, (R)—N-[2-(1-Hydroxycyclopropyl)-1-phenylethyl]-6,6-dimethyl-3-[1-(trimethylsilyl)cyclobutanecarboxamido]-4,6-dihydropyrrolo[3,4-c]pyrazole-5(1H)-carboxamide] | ≤ 50 nM | ≥ 1000 nM | ≤ 500 nM
CC(C)(O)C[C@@H](NC(=O)N1Cc2c(NC(=O)C3([Si](C)(C)C)CCC3)n[nH]c2C1(C)C)c1cccc(F)c1 [IV-911, (R)—N-[1-(3-Fluorophenyl)-3-hydroxy-3-methylbutyl]-6,6-dimethyl-3-[1-(trimethylsilyl)cyclobutanecarboxamido]-4,6-dihydropyrrolo[3,4-c]pyrazole-5(1H)-carboxamide] | ≤ 50 nM | ≥ 1000 nM | ≤ 500 nM
CC(C)(O)C[C@@H](NC(=O)N1Cc2c(NC(=O)C3([Si](C)(C)C)CCC3)n[nH]c2C1(C)C)c1ccc(F)cc1 [IV-939, (R)—N-[1-(4-Fluorophenyl)-3-hydroxy-3-methylbutyl]-6,6-dimethyl-3-[1-(trimethylsilyl)cyclobutanecarboxamido]-4,6-dihydropyrrolo[3,4-c]pyrazole-5(1H)-carboxamide] | ≤ 50 nM | ≥ 1000 nM | ≤ 500 nM
CCCO[C@@H](C(=O)N1Cc2c(NC(=O)C3([Si](C)(C)C)CCC3)n[nH]c2C1(C)C)c1ccccc1 [IV-1196, (R)—N-[6,6-Dimethyl-5-(2-phenyl-2-propoxyacetyl)-1,4,5,6-tetrahydropyrrolo[3,4-c]pyrazol-3-yl]-1-(trimethylsilyl)cyclobutanecarboxamide] | ≤ 50 nM | ≥ 1000 nM | ≤ 500 nM
CC(C)O[C@@H](C(=O)N1Cc2c(NC(=O)C3([Si](C)(C)C)CCC3)n[nH]c2C1(C)C)c1ccccc1 [IV-1204, (R)—N-[5-(2-Isopropoxy-2-phenylacetyl)-6,6-dimethyl-1,4,5,6-tetrahydropyrrolo[3,4-c]pyrazol-3-yl]-1-(trimethylsilyl)cyclobutanecarboxamide] | ≤ 50 nM | ≥ 1000 nM | ≤ 500 nM
